The test system of series [1] is EBV. Kind of series: In situ hybridization of EBV DNA in anti-IgG stimulated DMSO-released Akata cells. The format is cell-based, Epstein-Barr virus. The note with it: 20 hrs after 50 μg/ml anti-IgG; vesnarinone 0-100 μg/ml; acyclovir pretreatment. The method, then:
(§1) The human Burkitt's lymphoma cell line, Akata, provided by Dr. Kenzo Takada (Takada, Int. J. Cancer, 33:27-32 (1984); and Takada et al, Virus Genes, 5:147-156 (1991)), was cultured at 37° C. in RPMI 1640 medium supplemented with 15% (v/v) heat-inactivated FCS, and 20 μg/ml gentamicin.
(§2) The cell progression of Akata cells was arrested by culturing of the cells for 96 hrs in the presence of 1.5% (y/v) DMSO (Sigma, St. Louis, Mo.) (Sawai et al, Exp. Cell Res., 187:4-10 (1990); and Takase et al, Cell Growth Differ., 3:515-521 (1992)).
1 hr after transfer (release from DMSO), a goat F(ab')2 fragment of anti-human IgG antibody (Organon Teknika, Durham, N.C.) was added at a concentration of 50 μg/ml to induce productive EBV replication (Takagi et al, Virology, 185:309-315 (1991)).
3 hrs and 20 hrs after treatment with the anti-IgG, the cells were harvested for flow cytometric detection of the BamHI Z replication activator (ZEBRA), and for in situ detection of EBV DNA, respectively. […]
More specifically, cells coated on a glass slide were fixed in acetone at room temperature for 10 min. […] Positivity for EBV DNA was determined by the presence of red-colored grains and at least 1000 cells were examined under light microscopy. […]

The test system of series [2] is ZEBRA, R, EA-R, EA-D. Kind of series: Western immunoblot of EBV early antigens in Akata cells. The note with it: 30 μg/ml vesnarinone. In kind it is cell-based, Epstein-Barr virus. The method, then: 1 hr after release and transfer, the above-described anti-IgG antibody was added at a concentration of 50 μg/ml. 3 hrs and 20 hrs after treatment with the anti-IgG, the cells were harvested for the detection of EBV early antigens ZEBRA (BZLF1 product) by Western immunoblot.
More specifically, cells were washed with PBS, and then lysed at 4° C. in a buffer comprising 25 mM Tris-HCl (pH 7.4), 50 mM NaCl, 0.5% (w/v) sodium deoxycholate, 2.0% (v/v) Nonidet P-40, 0.2% (w/v) SDS, 1.0 mM phenyl-methane sulfonyl fluoride (PMSF), 10 μg/ml aprotinin, 10 μM leupeptin, and 100 μM sodium orthovanadate. After centrifugation, lysates were prepared for electrophoresis as described by Laemmli, Nature, 227:680-685 (1970). An amount of lysate equivalent to 4.0×10^5 cells was used for each immunoblot analysis.
After electrophoretic transfer of proteins to nitrocellulose filters and blocking the filters with 20 mM Tris-HCl (pH 8.0), 125 mM NaCl, 0.1% (v/v) Tween-20, 2.0% (w/v) BSA, and 0.1% (w/v) sodium azide, the filters were incubated with the appropriate primary antibody. For detection of ZEBRA (EB1, BZLF1 gene product), the antibody used was mouse monoclonal anti-EB1 (Z-125); for the detection of R (BRLF1 product), the antibody used was the mouse monoclonal anti-R (R5A9, provided by Dr. Evelyn Manet); for the detection of EA-R (BHRF1 product), monoclonal anti-EA-R (5B11, provided by Dr. Elliott Kieff) (Pearson et al, Virol., 160:151-161 (1987); and Henderson et al, Proc. Natl. Acad. Sci. USA, 90:8479-8483 (1993)), and for the detection of EA-D (BMRF1 product), the antibody used with the mouse monoclonal anti-EA-D (NEA-9240, DuPont, Boston, Mass. (Pearson et al, J. Virol., 47:193-201 (1983); and Kiehl et al, Virol., 184:330-340 (1991))).
Specific reactive bands were detected using anti-mouse secondary antibodies conjugated to alkaline phosphatase (Promega, Madison, Wis.) or horseradish peroxidase (Amersham) or ECL chemiluminescence (Amersham). That is, for detection of ZEBRA and R, alkaline phosphatase was used. For detection of EA-R and EA-D, horseradish peroxidase and the ECL chemiluminescence method was used (Amersham). Development was by the conventional methods, employing the colorogenic substrates bromochloroindolyl phosphate and nitroblue tetrazolium for alkaline phosphatase. The expression of ZEBRA reached a plateau level 3 hrs after stimulation and productive replication of EBV ceased 12 hrs after stimulation in this system.
(In general: Immunoblotting shows a protein as a band on a membrane.)

Series [3] has as its target T1, E. coli DNA polymerase I (Escherichia coli, UniProt P00582).
T1 construct: purchased Boehringer Mannheim
Kind of series: In vitro DNA polymerase assay. In kind it is biochemical. The note with it: vesnarinone up to 100 μg/ml.

In series [4] the test system is MRC5 cells. Kind of series: Microscopic evaluation of cytotoxicity in MRC5 cells. The format is cell-based. The note with it: vesnarinone up to 31 μg/ml, alone or with DHPG.
Series [5] deals with ZEBRA. Kind of series: Flow cytometric detection of ZEBRA in Akata cells. The note with it: 3 hrs after anti-IgG; vesnarinone 0-100 μg/ml. The format is cell-based, Epstein-Barr virus. As to the method:
as §1, §2
1 hr after transfer (release from DMSO), a goat F(ab')2 fragment of anti-human IgG antibody (Organon Teknika, Durham, N.C.) was added at a concentration of 50 μg/ml to induce productive EBV replication (Takagi et al, Virology, 185:309-315 (1991)). […]
For flow cytometric detection of ZEBRA, after a 60 min fixation with 70% (v/v) ethanol at 4° C., 10^6 cells were centrifuged, and washed with PBS. […] The cells were washed with PBS again, and analyzed by flow cytometry (Epics Profile, Coulter), monitoring fluorescence (520-540 nm) in a logarithmic scale with 488 nm excitation. The positivity for ZEBRA was calculated by a non-linear least squares method (Takase et al, J. Immunol. Methods, 118:129-138 (1989)).
(In general: A flow cytometer gives signals particle by particle.)

Series [6] concerns nucleoside and nucleobase transport in human T cells. Kind of series: [3H]nucleoside / [3H]nucleobase transport, 1 min pulse, T cells. To be noted: 250 μM vesnarinone, 100 μM deferoxamine, 15 nM aphidicolin or 1.0 μM dipyridamole. The format is cell-based.

T1 sequence (P00582 whole entry): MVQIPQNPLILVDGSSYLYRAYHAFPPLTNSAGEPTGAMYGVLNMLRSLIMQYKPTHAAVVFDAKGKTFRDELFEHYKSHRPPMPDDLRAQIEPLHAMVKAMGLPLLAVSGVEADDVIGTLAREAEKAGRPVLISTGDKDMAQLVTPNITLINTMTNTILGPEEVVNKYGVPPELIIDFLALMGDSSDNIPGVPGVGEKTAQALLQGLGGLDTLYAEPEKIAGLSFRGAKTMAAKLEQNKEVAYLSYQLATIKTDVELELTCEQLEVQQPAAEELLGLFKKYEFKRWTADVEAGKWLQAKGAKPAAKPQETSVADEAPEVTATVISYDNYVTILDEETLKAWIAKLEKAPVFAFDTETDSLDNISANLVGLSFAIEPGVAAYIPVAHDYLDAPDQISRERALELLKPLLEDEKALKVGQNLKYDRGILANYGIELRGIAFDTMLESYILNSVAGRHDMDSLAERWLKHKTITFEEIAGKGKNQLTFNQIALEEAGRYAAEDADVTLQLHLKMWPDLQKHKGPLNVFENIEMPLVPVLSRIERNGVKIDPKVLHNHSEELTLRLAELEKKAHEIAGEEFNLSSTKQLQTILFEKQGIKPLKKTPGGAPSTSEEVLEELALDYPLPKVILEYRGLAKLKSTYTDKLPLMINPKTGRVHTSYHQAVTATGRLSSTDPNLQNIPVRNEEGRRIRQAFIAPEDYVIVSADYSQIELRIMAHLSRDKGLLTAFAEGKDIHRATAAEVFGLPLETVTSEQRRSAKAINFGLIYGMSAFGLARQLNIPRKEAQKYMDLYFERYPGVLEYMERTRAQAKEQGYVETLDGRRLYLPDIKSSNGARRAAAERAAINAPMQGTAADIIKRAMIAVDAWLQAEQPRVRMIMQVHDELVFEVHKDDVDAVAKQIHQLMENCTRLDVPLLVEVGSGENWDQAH

In the case of `COc1ccc(C(=O)N2CCN(c3ccc4c(c3)CCC(=O)N4)CC2)cc1OC` [vesnarinone, 3,4-dihydro-6-[4-(3,4-dimethoxybenzoyl)-1-piperazinyl]-2(1H)-quinoline], in series [1], the “population of EBV producing cells (positivity for EBV DNA)” value is “gradually decreased in the presence of vesnarinone in a dose-dependent manner”. For the same molecule, in series [2] (3 hrs after anti-IgG), the “expression of ZEBRA (BZLF1)” value was “suppressed 3 hrs after stimulation with anti-IgG to a limited extent”. In series [2] (3 hrs and 20 hrs), the “expression of EA-R (BHRF1)” value is “expressed to the same degree 3 hrs and 20 hrs after stimulation”; the “expression of R (BRLF1)” value is on record as “expressed virtually at the same level in the presence or absence of vesnarinone”. Also, the “expression of EA-D (BMRF1)” value in series [2] (20 hrs after stimulation) is on record as “dramatically suppressed in the presence of vesnarinone”. In addition, in series [3], the “effect on in vitro DNA polymerase assay” value is listed as “has no effect on the measurement of dNTP contents in this in vitro DNA polymerase assay”. Besides, in series [4], the “cytotoxicity by microscopic evaluation” value was “No cytotoxicity was observed”. Moreover, in series [5], the “degree of positivity for ZEBRA” value is “not decreased by vesnarinone at concentrations less than or equal to 10 μg/ml”. The “transport of [3H]thymidine, [3H]adenosine, [3H]adenine, [3H]uracil” value in series [6] was “inhibited transportation of [^3 H]thymidine, [^3 H]adenosine, [^3 H]adenine, and also to a lesser extent, [^3 H]uracil”.

For the origin of these results see patent US5670520A, “Method for inhibiting virus replication in mammalian cells using carbostyil derivatives” (Otsuka Pharmaceutical Co., Ltd., priority 1996, dated 1997).
